Reference: US10563272B2, “Compositions comprising Metarhizium fungi and use thereof as a pesticide” (Cotton Research and Development Corporation, priority 2015, dated 2020)

Experiments:
[1] = system: Creontiades dilutus (green mirids); assay: Foliar spray trial on Bollgard II cotton, Norwood 2010-11 (Example 7): green mirids; assay type: in vivo; conditions: first spray, three DAT; BC 667/DAT 511 500 mL/ha, fipronil 62.5 mL/ha
Experimental: (§1) The trial was conducted on commercial Bollgard II® cotton crops at Norwood near Moree, NSW from 5 Dec. 2010 to 19 Feb. 2011. The cotton was at the early squaring stage, when it was attractive to green mirids (Khan et al. 2004).
(§2) The study evaluated the efficacy of the following treatments against green mirids, green vegetable bugs and predatory insects: • 1. 500 mL/ha BC 667 spore in oil (1×10^7 spores/ml); • 2. 500 mL/ha DAT 511 spore in oil (1×10^7 spores/ml); • 3. 62.5 mL/ha Fipronil (conventional insecticide); and • 4. Unsprayed (control).
The treatment plots were arranged in a randomized complete block design with four replicates per treatment. Each replicated plot measured 0.5 ha. Foliar application of each treatment was made on 18 Jan. 2011 using a ground spray rig fitted with flat fan nozzles to achieve a droplet size of 80 250 μm. The treatment was applied in the mornings when temperature was between 20° C. and 28° C. […]
Pre-treatment counts of green mirid adults and nymphs, predatory beetles, predatory bugs, predatory lacewings and spiders were made by visual inspection of whole cotton plants. Both adults and nymphs of the beneficial insects were counted. Plants were assessed in randomly selected one-metre lengths of row of each treatment replicate (i.e. four metres per treatment). […] Data are expressed as numbers of individuals of that species counted per metre for each treatment.

predatory beetles = assay: Foliar spray trial on Bollgard II cotton, Norwood 2010-11 (Example 7): predatory beetles; assay type: in vivo, Coleoptera (Coccinellidae, Melyridae); conditions: fipronil 62.5 mL/ha; for number of predatory beetles per meter: 1st spray, BC 667/DAT 511 0.50 L/ha; for number of predatory beetles per metre: 2nd spray, BC 667/DAT 511 0.5 L/ha
Experimental: as §1, §2
The treatment plots were arranged in a randomized complete block design with four replicates per treatment. Each replicated plot measured 0.5 ha. Foliar application of each treatment was made on 18 Jan. 2011 using a ground spray rig fitted with flat fan nozzles to achieve a droplet size of 80 250 μm. The treatment was applied in the mornings when temperature was between 20° C. and 28° C. The timing of treatment was based on an economic threshold of 0.5 green mirids per metre, the IPM guideline and recommendation by CottonLogic.
Pre-treatment counts of green mirid adults and nymphs, predatory beetles, predatory bugs, predatory lacewings and spiders were made by visual inspection of whole cotton plants. Both adults and nymphs of the beneficial insects were counted. Plants were assessed in randomly selected one-metre lengths of row of each treatment replicate (i.e. four metres per treatment). In all, two spray applications of each treatment were made. The first spray was made on 18 Jan. 2011. Post-treatment counts of the first spray application were taken 3, 7 and 14 days after treatment (DAT) (first spray). A second spray application was done on 1 Feb. 2011 when green mirid adults plus nymphs reached the threshold of 0.5 per metre. Post-treatment counts of the second spray application were taken 3, 7, 14, 21 and 28 DAT. Data are expressed as numbers of individuals of that species counted per metre for each treatment.

lacewings = assay: Rate trial on conventional cotton, Norwood 2012 (Example 10): lacewings; assay type: in vivo, Chrysopa spp., Micromus tasmaniae; conditions: P>0.05
Experimental: This trial was conducted on commercial conventional cotton crops on a farm at Norwood (29° 28'S, 149° 50′E) near Moree, NSW, from 28 Feb. to 21 Mar. 2012. The cotton used for the trial was at the early squaring stage, when it was attractive to green mirids (Khan et al. 2004).
(§3) The efficacy of the following treatments against green mirids and predatory insects were evaluated: • 1. 250 mL/ha DAT 511 spore in oil (1×10^7 spores/ml); • 2. 500 mL/ha DAT 511 spore in oil (1×10^7 spores/ml); • 3. 1 L/ha DAT 511 spore in oil (1×10^7 spores/ml); • 4. 62.5 mL/ha of Fipronil; and • 5. Unsprayed (negative control).
(§4) The treatment plots were arranged in a randomized complete block design with six replicates per treatment. Each replicated plot measured 40 m wide (40 rows) and 90 m long.
Foliar application of each treatment was made on 28 Feb. (for both green mirids and beneficial insects) and 13 Mar. […]
Pre-treatment counts of adult and nymph green mirids, predatory beetles, predatory bugs, predatory lacewings and spiders were made by visual inspection of whole cotton plants. Both adults and nymphs of beneficial insects were counted. Plants were assessed in randomly selected one-metre lengths of row of each treatment replicate (i.e. 6 m per treatment). […] Data are expressed as numbers of green mirid adults and nymphs counted per metre per treatment.

predatory bugs = assay: Bollgard II cotton, Auscott-Togo 2012-13, Field 77 (Experiment 1): predatory bugs; assay type: in vivo, Hemiptera (Nabidae, Lygaeidae, Pentatomidae); conditions: 62.5 mL/ha
Experimental: Two separate trials (Experiment 1 in Field 77; Experiment 2 in Field 63) were conducted in Bollgard II cotton crops on a commercial cotton farm at Auscott-Togo near Narrabri, New South Wales from 11 Feb. to 5 Mar. 2013 (Field 77) and 19 Feb. to 6 Mar. 2013 (Field 63). The cotton used for each of the trials was at the late squaring to pod setting and maturation stages which was fairly attractive to green mirids.
as §3, with “In both trials, the” for “The”, “was” for “were”, “fipronil;” for “Fipronil;”
as §4
Foliar application of each treatment was made on 28 Feb. (for both green mirids and beneficial insects) and 13 Mar. 2012 (for beneficial insects alone) using a ground spray rig fitted with flat fan nozzles to achieve a droplet size of 200 μm. The treatment was applied during the mornings when temperatures were between 20° C. and 28° C. The timing of treatment was based on the IPM Guidelines and recommendations by CottonLogic to use an economic threshold of 0.5 green mirids per metre (Deutscher and Wilson 1999; Khan et al. 2004).
Pre-treatment counts of green mirid adults and nymphs, predatory beetles, predatory bugs, predatory lacewings and spiders were made by visual inspection of whole cotton plants. Both adults and nymphs of beneficial insects were counted. Plants were assessed in randomly selected one-metre lengths of row of each replicate (i.e. 6 m per treatment). Post-treatment counts were made 3, 7, 14 and 21 days after treatment. Data are expressed as numbers of green mirid adults and nymphs counted per metre for each treatment.

## N#Cc1nn(-c2c(Cl)cc(C(F)(F)F)cc2Cl)c(N)c1[S+]([O-])C(F)(F)F (centres unmarked) [fipronil]
[1]
  green mirid mortality: 100%
Predatory beetles; 3 DAT
  number of predatory beetles per meter: 0.00 ± 0.00 a per meter
  number of predatory beetles per metre: 0.33 ± 0.33a per metre
Predatory beetles; 7 DAT
  number of predatory beetles per meter: 0.00 ± 0.00 a per meter
  number of predatory beetles per metre: 0.33 ± 0.33a per metre
Predatory beetles; 14 DAT
  number of predatory beetles per meter: 0.00 ± 0.00 a per meter
  number of predatory beetles per metre: 0.00 ± 0.00a per metre
Predatory beetles; pre-spray counts 18 Jan. 2011
  number of predatory beetles per meter: 0.67 ± 0.33 a per meter
Predatory beetles; 21 DAT
  number of predatory beetles per metre: 1.00 ± 0.58a per metre
Predatory beetles; 28 DAT
  number of predatory beetles per metre: 0.67 ± 0.33a per metre
Predatory beetles; pre-spray counts 1 Feb. 2011
  number of predatory beetles per metre: 0.00 ± 0.00a per metre
lacewings
  number of lacewings versus unsprayed (control) plots: No significant difference
Predatory bugs; 3 DAT
  number of predatory bugs per meter: 0.33 ± 0.00 a per meter
Predatory bugs; 7 DAT
  number of predatory bugs per meter: 0.00 ± 0.00 a per meter
Predatory bugs; 14 DAT
  number of predatory bugs per meter: 0.00 ± 0.00 a per meter
Predatory bugs; 21 DAT
  number of predatory bugs per meter: 0.67 ± 0.33 a per meter
Predatory bugs; pre-spray counts
  number of predatory bugs per meter: 0.33 ± 0.33 a per meter
